Measured values: patent publication US20260217683A1, “PYRIDAZINONE HETEROCYCLIC COMPOUND MYOSIN II INHIBITOR AND USE THEREOF” (Xizang Haisco Pharmaceutical Co., Ltd., priority 2023, published 2026)
Where two headings read alike, the source gives them in different places.

How the values were obtained:
Assay type in all cases: biochemical
[1] = system: rabbit skeletal muscle myosin; experiment: Inhibition of hydrolysis of ATP by rabbit skeletal muscle myosin
Procedure: The purpose of this test was to evaluate the ability of compounds to inhibit the hydrolysis of ATP by rabbit skeletal muscle myosin. The determination method was as follows:
• Preformed F-actin filaments (#AKF99-B, Cytoskeleton) were diluted to 1 mg/mL with Reaction buffer (25 mM Tris-HCL, pH 7.5+35 mM KCl+0.1 mM EGTA+1 mM MgCl2); • Rabbit myosin (#MYO2-A, Cytoskeleton) was diluted to 0.1 mg/mL with Resuspension buffer (15 mM Tris-HCL, PH7.5+0.2 M KCl+1 mM MgCl2); • ATP (#BSA04-001, Cytoskeleton) was diluted to 3 mM working solution with 15 mM Tris-HCL (PH=7.5);
• adding 13 μL reaction buffer+12 μL F-actin to actin control wells; • adding 10 μL reaction buffer+12 μL F-actin+3 μL myosin II to positive control wells; • adding 10 μL of compound working solution+12 μL of F-actin+3 μL of myosin II to the compound wells; • adding 5 μL of ATP working solution to all test wells to start the reaction, and simultaneously adding a sample to the Pi standard wells according to the instruction (#BK054, Cytoskeleton); • gently mixing and accurately incubating at 37° C. for 60 min; • adding 70 μL of CytoPhos Reagent (#BK054, Cytoskeleton) to each well and incubating for 10 min to stop the reaction.
• the OD value of each well was detected at 650 nm using the endpoint method. The standard curve was fitted according to Pi concentration and OD value, and the Pi concentration of each test well was obtained. Inhibition (%)=(Pi positive control well-Pi test well)/Pi positive control well*100%. The Inhibition %-[…] curve was fitted with Graphpad Prism 8 software, and IC50 was calculated.

cardiac myosin SII = biological target: T1, cardiac myosin SII (Bos taurus, UniProt Q9BE39); experiment: Inhibition of hydrolysis of ATP by cardiac myosin SII; settings: 100 μM compound
T1 construct: purchased Cytoskeleton #MYO3-A
T1 sequence (Q9BE39 whole entry): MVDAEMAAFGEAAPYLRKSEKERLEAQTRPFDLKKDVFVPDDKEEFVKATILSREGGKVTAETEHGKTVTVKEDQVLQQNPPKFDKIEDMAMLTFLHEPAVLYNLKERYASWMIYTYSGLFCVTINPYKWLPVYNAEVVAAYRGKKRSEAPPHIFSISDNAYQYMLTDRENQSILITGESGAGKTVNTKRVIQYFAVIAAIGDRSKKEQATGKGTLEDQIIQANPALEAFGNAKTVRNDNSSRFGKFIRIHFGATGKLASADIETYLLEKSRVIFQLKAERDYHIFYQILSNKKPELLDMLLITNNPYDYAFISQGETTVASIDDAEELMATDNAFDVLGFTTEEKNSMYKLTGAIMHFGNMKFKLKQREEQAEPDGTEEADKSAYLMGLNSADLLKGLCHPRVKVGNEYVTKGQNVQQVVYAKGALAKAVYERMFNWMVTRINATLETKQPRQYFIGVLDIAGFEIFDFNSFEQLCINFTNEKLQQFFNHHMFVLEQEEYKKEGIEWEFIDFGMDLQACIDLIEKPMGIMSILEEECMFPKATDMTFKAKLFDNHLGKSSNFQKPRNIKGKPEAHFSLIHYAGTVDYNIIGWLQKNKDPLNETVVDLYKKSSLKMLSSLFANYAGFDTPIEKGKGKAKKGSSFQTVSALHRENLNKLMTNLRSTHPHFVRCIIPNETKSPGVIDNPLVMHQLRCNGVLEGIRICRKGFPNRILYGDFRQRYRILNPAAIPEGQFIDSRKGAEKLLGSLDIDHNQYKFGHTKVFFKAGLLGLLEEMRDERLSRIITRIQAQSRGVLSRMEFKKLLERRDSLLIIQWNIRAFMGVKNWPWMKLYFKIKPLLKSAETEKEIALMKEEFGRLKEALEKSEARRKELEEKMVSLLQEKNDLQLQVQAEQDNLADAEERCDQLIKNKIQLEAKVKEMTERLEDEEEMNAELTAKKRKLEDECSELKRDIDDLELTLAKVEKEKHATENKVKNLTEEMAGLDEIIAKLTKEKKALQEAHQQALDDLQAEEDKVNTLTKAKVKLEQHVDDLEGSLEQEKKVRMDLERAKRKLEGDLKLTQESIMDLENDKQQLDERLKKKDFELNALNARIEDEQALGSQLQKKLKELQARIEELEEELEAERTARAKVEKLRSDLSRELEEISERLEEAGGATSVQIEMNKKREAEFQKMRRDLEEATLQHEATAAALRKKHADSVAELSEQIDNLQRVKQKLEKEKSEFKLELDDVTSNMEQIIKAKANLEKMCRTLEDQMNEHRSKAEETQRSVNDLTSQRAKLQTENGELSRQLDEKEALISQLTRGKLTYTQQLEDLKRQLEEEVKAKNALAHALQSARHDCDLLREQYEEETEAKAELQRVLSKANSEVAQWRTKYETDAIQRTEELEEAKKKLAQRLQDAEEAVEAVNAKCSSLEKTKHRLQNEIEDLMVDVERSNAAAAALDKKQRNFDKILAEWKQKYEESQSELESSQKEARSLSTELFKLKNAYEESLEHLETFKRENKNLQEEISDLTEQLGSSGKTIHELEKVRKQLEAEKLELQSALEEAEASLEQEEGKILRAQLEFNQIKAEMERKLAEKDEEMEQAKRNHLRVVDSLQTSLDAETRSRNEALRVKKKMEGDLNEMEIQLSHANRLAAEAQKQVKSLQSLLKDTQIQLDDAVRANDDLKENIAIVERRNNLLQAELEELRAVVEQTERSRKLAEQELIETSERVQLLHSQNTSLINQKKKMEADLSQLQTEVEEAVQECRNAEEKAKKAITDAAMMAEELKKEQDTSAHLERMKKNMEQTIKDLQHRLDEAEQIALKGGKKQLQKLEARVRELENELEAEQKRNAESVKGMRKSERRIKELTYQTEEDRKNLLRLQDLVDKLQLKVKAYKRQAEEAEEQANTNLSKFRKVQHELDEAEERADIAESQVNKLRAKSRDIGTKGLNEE
T1 sequence (P85100 whole entry partner): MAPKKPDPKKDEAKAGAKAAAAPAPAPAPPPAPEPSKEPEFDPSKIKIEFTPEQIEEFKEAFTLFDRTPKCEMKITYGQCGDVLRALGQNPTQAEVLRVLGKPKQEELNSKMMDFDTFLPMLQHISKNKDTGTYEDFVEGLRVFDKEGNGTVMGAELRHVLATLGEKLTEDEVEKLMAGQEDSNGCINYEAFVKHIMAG
T1 sequence (Q3SZE5 whole entry partner): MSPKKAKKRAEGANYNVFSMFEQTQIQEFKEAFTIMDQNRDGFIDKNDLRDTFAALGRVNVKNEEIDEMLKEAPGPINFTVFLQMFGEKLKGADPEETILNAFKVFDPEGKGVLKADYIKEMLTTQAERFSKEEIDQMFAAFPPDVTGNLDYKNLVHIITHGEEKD
Procedure: The purpose of this test was to evaluate the ability of compounds to inhibit the hydrolysis of ATP by cardiac myosin SII. The determination method was as follows: • 1. Solution formulation: • Preformed F-actin filaments (#AKF99-B, Cytoskeleton) were diluted to 1 mg/mL with Reaction buffer (15 mM Tris-HCL. PH7.5+10 mM KCl+0.1 mM EGTA+2 mM MgCl2); • Cardiac Muscle myosin (#MYO3-A, Cytoskeleton) was diluted to 1 mg/mL with Resuspension buffer (15 mM Tris-HCL, PH7.5+0.2M KCl+1 mM MgCl2); • ATP (#BSA04-001, Cytoskeleton) was diluted to 3 mM working solution with 15 mM Tris-HCL (PH=7.5); • 2. Formulation of working solution of compounds: the final compound concentration was 100 μM • 3. Experimental steps: • adding 10 μL of compound working solution+12 μL of Preformed F-actin filaments+3 μL of Cardiac Muscle myosin to the compound wells; • adding 10 μL of reaction buffer containing DMSO+12 μL Preformed F-actin filaments +3 μL Cardiac Muscle myosin to positive control wells; • adding 10 μL of reaction buffer containing DMSO+12 μL Preformed F-actin filaments +3 μL Resuspension buffer to negative control wells; • adding 5 μL of 3 mM ATP working solution to all test wells to start the reaction, gently mixing and incubating at 37° C. for 2 h; • after the reaction was completed, taking 6 μL of reaction liquid, adding 24 μL of reaction buffer for 5-fold dilution, then detecting the content of the product Pi with a phosphate kit (#BK054, Cytoskeleton); • adding a sample to Pi standard wells according to the instructions; • adding 70 μL of CytoPhos Reagent (#BK054, Cytoskeleton) to each well and incubating at room temperature for 10 min before detection. • 4. Detection: • the OD value of each well was detected at 650 nm. The standard curve was fitted according to Pi standard concentration and OD value, and the Pi concentration of each test well was obtained. Inhibition (%)=(positive control well−test well)/positive control well*100%.

smooth muscle myosin S1 = biological target: T2, smooth muscle myosin S1 (Gallus gallus, UniProt P10587); experiment: Inhibition of hydrolysis of ATP by smooth muscle myosin S1 fragments; settings: 100 μM compound
T2 construct: purchased Cytoskeleton #CS-MYS05
T2 sequence (P10587 84-789 limits assumed): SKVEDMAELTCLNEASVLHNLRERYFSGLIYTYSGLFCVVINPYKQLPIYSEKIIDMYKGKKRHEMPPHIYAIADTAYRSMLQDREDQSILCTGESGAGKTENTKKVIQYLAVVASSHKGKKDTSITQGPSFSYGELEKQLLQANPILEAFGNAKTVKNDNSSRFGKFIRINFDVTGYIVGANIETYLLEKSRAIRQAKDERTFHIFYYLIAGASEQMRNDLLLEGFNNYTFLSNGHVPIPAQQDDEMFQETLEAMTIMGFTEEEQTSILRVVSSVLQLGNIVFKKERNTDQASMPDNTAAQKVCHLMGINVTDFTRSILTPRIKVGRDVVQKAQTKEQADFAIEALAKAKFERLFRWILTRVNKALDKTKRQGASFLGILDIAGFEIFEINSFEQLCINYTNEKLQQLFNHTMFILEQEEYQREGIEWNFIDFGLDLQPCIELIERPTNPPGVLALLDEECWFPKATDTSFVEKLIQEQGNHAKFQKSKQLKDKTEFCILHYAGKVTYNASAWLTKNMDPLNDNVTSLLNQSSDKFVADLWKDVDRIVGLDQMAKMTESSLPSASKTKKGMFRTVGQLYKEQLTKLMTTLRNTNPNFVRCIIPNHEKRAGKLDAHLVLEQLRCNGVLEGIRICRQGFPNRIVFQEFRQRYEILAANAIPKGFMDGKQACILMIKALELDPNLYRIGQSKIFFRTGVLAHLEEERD
T2 sequence (P02607 whole entry partner, the tested form may be a part): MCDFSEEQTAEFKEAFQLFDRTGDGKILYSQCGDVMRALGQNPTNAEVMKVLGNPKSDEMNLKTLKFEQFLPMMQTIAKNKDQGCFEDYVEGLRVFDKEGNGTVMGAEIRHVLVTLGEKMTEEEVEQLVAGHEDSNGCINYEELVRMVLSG
Procedure: The purpose of this test was to evaluate the ability of compounds to inhibit the hydrolysis of ATP by smooth muscle myosin Si fragments. The determination method was as follows: • 1. Solution formulation • F-actin polymer: Cardiac Actin powder (#CS-AD99, Cytoskeleton) was dissolved in a buffer (5 mM Pipes-KOH solution, PH=7.0, containing 100 μM ATP and 500 μM DTT) to form a 2 mg/mL solution and the solution was left at room temperature for 30 min; then 2 mM MgCl2 and 2 mM EGTA were added and the obtained system was left at room temperature for 40 min; • Smooth muscle SI fragment (#CS-MYS05, Cytoskeleton) was diluted with a pre-cooled PM12 buffer containing 1 mM DTT (12 mM Pipes-KOH solution, PH=7.0, containing 2 mM MgCl2) to form a 0.7 mg/mL solution; • ATP (#BSA04-001, Cytoskeleton) was diluted to 5 mM working solution with 15 mM Tris-HCL (PH=7.5); • 2. […] Experimental steps: • adding 10 μL of compound working solution+6 μL of F-actin polymer+4 μL of Smooth muscle Si fragment solution to the compound wells; • adding 10 μL of PM12 buffer containing DMSO+6 μL of F-actin polymer+4 μL of Smooth muscle S1 fragment solution to positive control wells; • adding 10 μL of PM12 buffer containing DMSO+6 μL of F-actin polymer+4 μL of PM12 buffer to negative control wells; • adding […] of 5 mM ATP working solution to all test wells to start the reaction, gently mixing and incubating at 37° C. for 20 min; • after the reaction was completed, taking 6 μLL of reaction liquid, adding 24 μL of PM12 buffer for 5-fold dilution, then detecting the content of the product Pi with a phosphate kit (#BK054, Cytoskeleton); • adding a standard according to the instructions, adding 70 μL of CytoPhos Reagent (#BK054, Cytoskeleton) to all wells and incubating at room temperature for 10 min before detection. • 4. Detection: • the OD value of each well was detected at 650 nm. The standard curve was fitted according to Pi standard concentration and OD value, and the Pi concentration of each test well was obtained. Inhibition (%)=(positive control well−test well)/positive control well*100%.

[2] = inhibition of hydrolysis of ATP, class symbols, read-out: Rabbit skeletal muscle myosin (IC50)
[3] = read-out: IC50 for inhibition of hydrolysis of ATP by rabbit skeletal muscle myosin

SMILES | IC50 [1, 2] [nM] | inhibition at 100 µM (cardiac myosin SII) [%] | IC50 [1, 3] [nM] | inhibition at 100 µM (smooth muscle myosin S1) [%]
O=c1ccc(-c2cnc(OCCCF)nc2)nn1Cc1ccc2c(c1)CCC2 [Compound 71] | < 2500 | 21 |  | 
O=c1ccc(-c2cnc(OCCCF)nc2)nn1Cc1ccc2c(c1)CC2 [Compound 69] | < 2500 | 19 | 100 | 
O=c1ccc(-c2cnc(OCC(F)(F)F)nc2)nn1Cc1ccc2c(c1F)CCC2 [Compound 98] | < 2500 |  | 200 | 
O=c1ccc(-c2cnc(OCC(F)F)nc2)nn1Cc1ccc2c(c1)CC2 [compound 60] | < 2500 |  | 100 | 
O=c1ccc(-c2cnc(OCCC(F)(F)F)nc2)nn1Cc1ccc2c(c1)CC2 [Compound 65] | < 2500 |  |  | 
O=C1CCc2c1cc(Cn1nc(-c3cnc(OCC(F)(F)F)nc3)ccc1=O)cc2C1CC1 [Compound 177] | 2500 to 20000 |  |  | 
O=c1ccc(-c2cnc(OC3COC3)nc2)nn1Cc1ccc2c(c1)CC2 [Compound 94] | < 2500 |  | 200 | 
O=c1ccc(-c2cnc(OCC(F)(F)F)nc2)nn1Cc1ccc2c(c1)CCC2(F)F [Compound 79] | 2500 to 20000 |  |  | 
O=C1CCc2c(Cl)cc(Cn3nc(-c4cnc(Oc5cncc(Cl)c5)nc4)ccc3=O)cc21 [Compound 175] | < 2500 |  | 530 | 
O=c1ccc(-c2cnc(OCC(F)F)nc2)nn1Cc1ccc2c(c1)C(F)(F)CC2 [Compound 100] | < 2500 |  | 100 | 
O=c1ccc(-c2cnc(OCCC(F)F)nc2)nn1Cc1ccc2c(c1)CCC2 [Compound 76] | < 2500 |  |  | 
O=c1ccc(-c2cnc(OCC(F)(F)F)nc2)nn1Cc1cc2c(cc1F)CCC2 [Compound 99] | < 2500 |  | 800 | 
O=C1CCc2ccc(Cn3nc(-c4cnc(OCC(F)(F)F)nc4)ccc3=O)c(F)c21 [Compound 152] | < 2500 |  |  | -5
O=c1ccc(-c2cnc(C3CC3)nc2)nn1Cc1ccc2c(c1)CCC2 [Compound 78] | < 2500 |  |  | 
O=C1CCc2ccc(Cn3nc4c(cc3=O)CCc3nc(OCC(F)(F)F)ncc3-4)cc21 [Compound 154] | 2500 to 20000 |  |  | 
O=C1CCc2ccc(Cn3nc(-c4cnc(Oc5cccc(C(F)(F)F)n5)nc4)ccc3=O)cc21 [Compound 144] | 2500 to 20000 |  |  | 
O=c1ccc(-c2cnc(OC3CC(F)(F)C3)nc2)nn1Cc1ccc2c(c1)CC2 [Compound 83] | < 2500 |  |  | 
O=C1CCc2ccc(Cn3nc(-c4cnc(Oc5ccc(F)cn5)nc4)ccc3=O)cc21 [Compound 146] | 2500 to 20000 |  |  | 
O=c1ccc(-c2cnc(OCC3CC3(F)F)nc2)nn1Cc1ccc2c(c1)CC2 (stereo not shown) [Compound 87] | < 2500 |  | 300 | 

SMILES | IC50 [1, 2] [nM] | inhibition at 100 µM (cardiac myosin SII) [%] | IC50 [1, 3] [nM] | inhibition at 100 µM (smooth muscle myosin S1) [%]
O=c1ccc(-c2cnc(O[C@@H]3CCOC3)nc2)nn1Cc1ccc2c(c1)CC2 [Compound 107] | < 2500 |  | 200 | 
O=c1ccc(-c2cnc(Oc3cncc(F)c3)nc2)nn1Cc1ccc2c(c1)CC2 [Compound 101] | < 2500 |  | 100 | 
O=C1CCCc2ccc(Cn3nc(-c4cnc(OCC(F)(F)F)nc4)ccc3=O)cc21 [Compound 168] | 2500 to 20000 |  |  | 
O=C1CCc2c(Cl)cc(Cn3nc(-c4cnc(Oc5cncc(F)c5)nc4)ccc3=O)cc21 [Compound 173] | < 2500 |  | 530 | 
O=c1ccc(-c2cnc(OCC3CC3)nc2)nn1Cc1ccc2c(c1)CC2 [Compound 86] | < 2500 |  | 200 | 
O=c1ccc(-c2cnc(OC3CC(F)(F)C3)nc2)nn1Cc1ccc2c(c1)CCC2 [Compound 85] | 2500 to 20000 |  |  | 
CC(c1ccc2c(c1)CC2)n1nc(-c2cnc(OCC(F)(F)F)nc2)ccc1=O (single isomer, unassigned) [Compound 64] | < 2500 |  |  | 
O=c1ccc(-c2cnc(OCCF)nc2)nn1Cc1ccc2c(c1)CC2 [Compound 66] | < 2500 |  |  | 
O=c1cc2c(nn1Cc1ccc3c(c1)CC3)-c1cnc(OC3CCOC3)nc1CC2 (stereo not shown) [Compound 122] | 2500 to 20000 |  |  | 
O=c1ccc(-c2cnc(OCCCCl)nc2)nn1Cc1ccc2c(c1)CCC2 [Compound 77] | < 2500 |  |  | 
O=c1ccc(-c2cnc(OCCF)nc2)nn1Cc1ccc2c(c1)CCC2 [Compound 75] | < 2500 |  | 500 | 
CC(c1ccc2c(c1)CC2)n1nc(-c2cnc(OCC(F)(F)F)nc2)ccc1=O (stereo not shown) [Compound 61] | 2500 to 20000 |  |  | 
O=c1ccc(-c2cnc(OC3CC3)nc2)nn1Cc1ccc2c(c1)CC2 [Compound 82] | < 2500 |  | 200 | 
O=c1ccc(-c2cnc(OCC(F)(F)F)nc2)nn1Cc1ccc2c(c1)CC=C2 [Compound 138] | < 2500 |  | 200 | 
O=C1CCc2ccc(Cn3nc(-c4cnc(Oc5ccnc(C(F)(F)F)c5)nc4)ccc3=O)cc21 [Compound 143] | 2500 to 20000 |  |  | 
O=C1CCc2c(Cl)cc(Cn3nc(-c4cnc(Oc5cccc(F)n5)nc4)ccc3=O)cc21 [Compound 174] | < 2500 |  |  | 
O=c1ccc(-c2cnc(OCC(F)(F)F)nc2)nn1Cc1ccc2c(c1)C=CC2 [Compound 137] | < 2500 |  | 300 | 11
O=c1ccc(-c2cnc(OCCC(F)F)nc2)nn1Cc1ccc2c(c1)CC2 [Compound 68] | < 2500 |  | 100 | 
